Reference: ChEMBL document CHEMBL3638794, “Indazole compounds useful as ketohexokinase inhibitors” (2014)

Target: T1, Ketohexokinase (Homo sapiens, UniProt P50053)
T1 sequence (P50053 whole entry): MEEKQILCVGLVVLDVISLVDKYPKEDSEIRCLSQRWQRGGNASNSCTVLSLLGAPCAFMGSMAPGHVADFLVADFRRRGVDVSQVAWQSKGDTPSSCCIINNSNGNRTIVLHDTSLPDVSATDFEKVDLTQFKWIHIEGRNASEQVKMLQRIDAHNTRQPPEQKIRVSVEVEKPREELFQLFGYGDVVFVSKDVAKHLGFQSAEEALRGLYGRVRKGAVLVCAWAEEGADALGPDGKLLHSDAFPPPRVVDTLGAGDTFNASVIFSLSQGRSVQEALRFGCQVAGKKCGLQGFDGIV
Test: Enzyme Assay: An enzymatic assay was developed to measure KHK-mediated conversion of D-fructose to Fructose-1-P (F-1-P) using High Throughput Mass Spectroscopy (HTMS) as a means of product detection. […] The assay was carried out in 384-well plate format.

IC50: 2050 nM
SMILES: CSc1nn(-c2ccc(Br)cc2)c2cc(OC3CCNCC3)ccc12
